Experiments:
Experiment in all cases: relative viability (nuclei count vs DMSO), 5 days (fraction); higher = more cells survive
[1] = compound: Cn1nnc2c(C(N)=O)ncn2c1=O [Temozolomide] + CC1(C)CCC(c2ccc(Cl)cc2)=C(CN2CCN(c3ccc(C(=O)NS(=O)(=O)c4ccc(N[C@H](CCN5CCOCC5)CSc5ccccc5)c(S(=O)(=O)C(F)(F)F)c4)cc3)CC2)C1 [Navitoclax] (partner 0.5 µM)
Procedure, shortened: (§1)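 Nuclei were stained with Hoechst during a one-step fixation (final 0.05% Triton X-100, 1% formaldehyde, 1 ug/ml Hoechst) carried out 5 days after dosing, then counted on 4× images. The cells, lung cancer lines in 1536-well plates, had been dosed by pin tool the day after seeding with one drug alone or a fixed anchor-drug dose plus five library-drug doses (not always all listed) in √10 steps. Relative viability is the nuclei count in treated wells divided by that in vehicle wells, and each value is the median of duplicate plates.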

[2] = compound: Cn1nnc2c(C(N)=O)ncn2c1=O [Temozolomide] + CCNC(=O)c1noc(-c2cc(C(C)C)c(O)cc2O)c1-c1ccc(CN2CCOCC2)cc1 [Luminespib] (partner 0.01 µM)
Procedure, shortened: as §1

Temozolomide + Dasatinib = compound: Cn1nnc2c(C(N)=O)ncn2c1=O [Temozolomide] + Cc1nc(Nc2ncc(C(=O)Nc3c(C)cccc3Cl)s2)cc(N2CCN(CCO)CC2)n1 [Dasatinib] (partner 0.075 µM)
Procedure, shortened: as §1

Temozolomide + AZD7762 = compound: Cn1nnc2c(C(N)=O)ncn2c1=O [Temozolomide] + NC(=O)Nc1cc(-c2cccc(F)c2)sc1C(=O)N[C@H]1CCCNC1 [AZD7762] (partner 0.2 µM)
Procedure, shortened: as §1

Row | Cell Line | relative viability ([1]; first compound 0.2 µM) | relative viability ([1]; first compound 0.6325 µM) | relative viability ([1]; first compound 2 µM) | relative viability ([1]; first compound 6.325 µM) | relative viability ([1]; first compound 20 µM) | relative viability ([2]; first compound 0.2 µM) | relative viability ([2]; first compound 0.6325 µM) | relative viability ([2]; first compound 2 µM) | relative viability ([2]; first compound 6.325 µM) | relative viability ([2]; first compound 20 µM) | relative viability (Temozolomide + Dasatinib; first compound 0.2 µM) | relative viability (Temozolomide + Dasatinib; first compound 0.6325 µM) | relative viability (Temozolomide + Dasatinib; first compound 2 µM) | relative viability (Temozolomide + Dasatinib; first compound 6.325 µM) | relative viability (Temozolomide + Dasatinib; first compound 20 µM) | relative viability (Temozolomide + AZD7762; first compound 0.2 µM) | relative viability (Temozolomide + AZD7762; first compound 0.6325 µM) | relative viability (Temozolomide + AZD7762; first compound 2 µM) | relative viability (Temozolomide + AZD7762; first compound 6.325 µM) | relative viability (Temozolomide + AZD7762; first compound 20 µM)
1 | NCI-H1651 | 1.15 | 1.01 | 1.07 | 0.958 | 1 | 0.956 | 0.935 | 0.578 | 0.662 | 1.05 | 0.418 | 0.464 | 0.377 | 0.356 | 0.529 | 0.392 | 0.403 | 0.478 | 0.465 | 0.419
2 | NCI-H1666 | 0.831 | 0.933 | 0.764 | 0.768 | 0.454 | 0.976 | 0.993 | 0.874 | 0.677 | 0.701 | 0.859 | 0.821 | 0.728 | 0.571 | 0.56 | 0.795 | 0.923 | 0.858 | 0.7 | 0.657
3 | NCI-H1734 | 0.803 | 0.854 | 0.886 | 0.811 | 0.835 | 0.285 | 0.183 | 0.237 | 0.201 | 0.194 | 0.482 | 0.471 | 0.396 | 0.482 | 0.464 | 0.642 | 0.623 | 0.646 | 0.488 | 0.559
4 | NCI-H1755 | 1.07 | 0.982 | 1.01 | 0.971 | 0.727 | 0.176 | 0.5 | 0.435 | 0.387 | 0.304 | 0.439 | 0.418 | 0.427 | 0.395 | 0.473 | 0.487 | 0.396 | 0.485 | 0.385 | 0.638
5 | NCI-H1792 | 0.852 | 0.773 | 0.655 | 0.577 | 0.616 | 0.412 | 0.436 | 0.44 | 0.493 | 0.508 | 0.498 | 0.747 | 0.73 | 0.778 | 0.867 | 0.9 | 0.775 | 0.711 | 0.532 | 0.676
6 | NCI-H1793 | – | 0.358 | 0.415 | 0.506 | 0.3 | – | 0.151 | 0.309 | 0.189 | 0.186 | – | 0.407 | 0.378 | 0.28 | 0.352 | – | 0.414 | 0.605 | 0.401 | 0.411
7 | NCI-H1915 | 0.797 | 0.754 | 0.684 | 0.495 | 0.305 | 0.963 | 0.761 | 0.616 | 0.429 | 0.313 | 0.348 | 0.328 | 0.288 | 0.215 | 0.198 | 0.757 | 0.652 | 0.584 | 0.281 | 0.27
8 | NCI-H1944 | 0.855 | 1.05 | 1.12 | 1.04 | 0.913 | 0.59 | 0.829 | 0.907 | 0.729 | 0.711 | 0.218 | 0.196 | 0.223 | 0.213 | 0.192 | 0.432 | 0.505 | 0.391 | 0.441 | 0.696
9 | NCI-H1975 | 1.2 | 1.11 | 1.2 | 1.07 | 1.13 | – | 0.23 | 0.487 | 0.131 | 0.172 | 0.466 | 0.365 | 0.413 | 0.361 | 0.462 | – | 0.778 | 0.85 | 0.679 | 0.78
10 | NCI-H1993 | 0.823 | 0.893 | 0.889 | 0.879 | 0.804 | 0.856 | 0.783 | 0.764 | 0.75 | 0.824 | 0.528 | 0.603 | 0.524 | 0.661 | 0.6 | 0.678 | 0.764 | 1.03 | 0.692 | 0.71
11 | NCI-H2085 | 1.2 | 1.24 | 1.24 | 1.18 | 1.06 | 0.476 | 0.415 | 0.41 | 0.449 | 0.487 | 0.22 | 0.293 | 0.282 | 0.262 | 0.218 | 0.878 | 1.03 | 0.938 | 0.928 | 0.972
12 | NCI-H2087 | 1.15 | 1.05 | 1.02 | 0.891 | 0.965 | 0.204 | 0.188 | 0.188 | 0.165 | 0.168 | 0.909 | 0.97 | 1.02 | 0.734 | 0.882 | 1.38 | 1.31 | 1.46 | 1.35 | 1.33
13 | NCI-H2126 | 0.853 | 0.829 | 0.83 | 0.886 | 0.844 | 0.917 | 0.927 | 1 | 0.802 | 0.888 | 0.634 | 0.664 | 0.678 | 0.61 | 0.641 | 1.05 | 1.02 | 1.02 | 0.959 | 1.11
14 | NCI-H2170 | – | 0.478 | 0.6 | 0.534 | 0.32 | – | 0.7 | 0.749 | 0.478 | 0.359 | – | 0.677 | 0.655 | 0.503 | 0.259 | – | 0.951 | 0.733 | 0.466 | 0.295
15 | NCI-H2347 | 0.818 | 0.825 | 0.441 | 0.73 | 0.732 | 0.417 | 0.414 | 0.608 | 0.488 | 0.322 | 0.328 | 0.329 | 0.298 | 0.303 | 0.282 | 0.572 | 0.743 | 0.757 | 0.792 | 0.706
16 | NCI-H2405 | 0.34 | 0.775 | 0.995 | 0.73 | 0.82 | 0.67 | 0.77 | 0.817 | 0.513 | 0.751 | 0.214 | 0.222 | 0.254 | 0.199 | 0.21 | 0.821 | 0.79 | 0.828 | 0.759 | 0.75
17 | NCI-H3122 | 1.05 | 1.03 | 1.08 | 1.01 | 0.976 | 0.0795 | 0.105 | 0.125 | 0.0851 | 0.0839 | 0.931 | 0.803 | 0.886 | 0.812 | 0.828 | 1.02 | 1.05 | 1.01 | 0.922 | 0.934
